In patent US12497408B2, “Tetracyclic compounds and methods for the treatment of Zika virus infection” (priority 2021, dated 2025):

tested on: ZIKV; assay: ZIKV reporter virus-based antiviral screening on Huh7 cells; assay type: cell-based, Zika virus; conditions: Zika virus, Huh-7, 48 h, Huh7 cells infected with recombinant luciferase reporter ZIKV (MOI about 0.1), luciferase signal
Description: Protocol for ZIKV reporter virus-based antiviral screening on Huh7 cells:
• Human hepatocyte-derived carcinoma cell line (Huh7) 2. Reagents • ViviRen™ Live Cell Substrate (Promega, Cat #E6492) or Nano Glo assay system (Promega: N1130) • White opaque 96-well TC-treated microplates (Corning, Cat #3916) • 96-well Clear V-Bottom TC-treated Microplate (Corning, Cat #3894) • Complete cell culture media: DMEM (Gibco, Cat #10569) supplemented with 10% FBS (HyClone, Cat #SH30071.03IH25-40)+1% MEM Non-Essential Amino Acids Solution 100×(Gibco, Cat #11140050)+1% Penicillin-Streptomycin (10,000 U/mL) (Gibco, Cat #15140122). • Assay media: DMEM media (Gibco, Cat #31053028) supplemented with 2% FBS, 2% GlutaMAX™ Supplement (Gibco Cat #35050061), 1% Sodium Pyruvate solution (Gibco, Cat #11360070), 1% MEM Non-Essential Amino Acids Solution 100× and 1% Penicillin-Streptomycin (10,000 U/mL). • Trypsin-EDTA solution (Gibco, Cat #25200056) 3. Virus • Recombinant ZIKV strain with Renilla luciferase gene (strain FSS-Rlu) or Nano luciferase gene (Strain PRV-Nano, Dakar-Nano) 4. Instruments • BioTek Cytation 5 or other plate-readers for chemiluminescence detection model. • Eppendorf plate centrifuge • Plate shaker • Eppendorf multichannel pipettes Procedures Day 1: Preparation of Cells • Human hepatocyte-derived carcinoma cell line (Huh7) cells were detached from a T-175 flask by using a Trypsin-EDTA solution. The detached cells were suspended in complete culture media in a sterile 50-ml conical tube. • The 50-ml conical tube was centrifuged at 1200×rpm for 3 min at room temperature. • The cells were resuspended in assay media. The cell numbers were counted, and the cells diluted to a density of 3×10^5 cells/ml. • The cells were plated at 50 μl cells per well in White opaque 96-well plates (assay plates). Gently shake the plates to ensure cells to attach to the plate evenly. • The plated cells were incubated in a humidified incubator (37° C. with 5% CO2). Day 2: Infection • 1) Nine serial (2-fold or 3-fold) concentrated compounds were prepared using 90% DMSO solution and DMSO controls in a clear V-bottom 96-well plate (compound plate). • For example:
• 2) The reporter virus stock was diluted to a concentration of 3×10^4 FFU (FFU: focus-forming unit)/ml using the assay media. 200 μl diluted virus per well was aliquoted into a clear V-bottom 96-well plate (mixing plate). • 3) 1 μl above 400×concentrated compound dilutions was added from the compound plate to each well of the mixing plate. The plates were shaken on a plate shaker for 5 min. • 4) 50 μl compound-virus mixture was added into each well of the assay plates (the MOI is about 0.1). The plates were shaken gently by mixing the virus evenly. • An example of the format for assay plate:
• control. • 5) The plates were centrifuged at 1000 rpm for 15 s. • 6) The plates were incubated at 37° C. with 5% CO2 in a humidified incubator for 48 hrs. Day 4: Read Luciferase Signals • 7) The ViviRen™ Live Cell Substrate was diluted in assay media for 3000× folds. 25 μl of diluted substrates was added into each well of the assay plates. • For Nano-Glo assay system, 50 μl diluted substrates (50×fold diluted from the stock in assay buffer) were added. • 8) The plates were incubated at room temperature for 5 min. • 9) Optimally, cell viability is measured using the Promega Cell-titer Glo kit (only used when ZIKV-Rlu was used for infection). • 10) Luciferase signals were read using the Cytation 5 with gain value of 120-150. Data Analysis • a. The luciferase signals from DMSO-treated groups (un-treated controls) were set as 100%. The relative luciferase signals were obtained by normalizing the luciferase signals from each dilution-treated group to that of the controls. • b.

Row | SMILES | EC50 [nM]
1 | COC(=O)N[C@H](C(=O)N1CCCC[C@H]1c1nc(Cl)c(-c2cc3c4c(c2)OCc2cc(-c5[nH]c([C@@H]6CCCCN6C(=O)[C@@H](NC(=O)OC)C(C)C)nc5Cl)cc(c2-4)OC3)[nH]1)C(C)C [Compound 13, dimethyl ((2S,2′S)-((2S,2′S)-((5,10-dihydrochromeno[5,4,3-cde]chromene-2,7-diyl)bis(4-chloro-1H-imidazole-5,2-diyl))bis(piperidine-2,1-diyl))bis(3-methyl-1-oxobutane-1,2-diyl))dicarbamate] | 4.5
2 | CC[C@H](C)[C@H](NC(=O)OC)C(=O)N1CCCC[C@H]1c1nc(Cl)c(-c2cc3c4c(c2)OCc2cc(-c5[nH]c([C@@H]6CCCCN6C(=O)[C@@H](NC(=O)OC)[C@@H](C)CC)nc5Cl)cc(c2-4)OC3)[nH]1 [Compound 14, dimethyl ((2S,2′S,3S,3′S)-((2S,2′S)-((5,10-dihydrochromeno[5,4,3-cde]chromene-2,7-diyl)bis(4-chloro-1H-imidazole-5,2-diyl))bis(piperidine-2,1-diyl))bis(3-methyl-1-oxopentane-1,2-diyl))dicarbamate] | 4.6
3 | COC(=O)N[C@H](C(=O)N1CC2(CC2)C[C@H]1c1nc(Cl)c(-c2cc3c4c(c2)OCc2cc(-c5[nH]c([C@@H]6CC7(CC7)CN6C(=O)[C@@H](NC(=O)OC)C(C)C)nc5C(C)C)cc(c2-4)OC3)[nH]1)C(C)C [Compound 15, methyl ((S)-1-((S)-6-(5-(7-(4-chloro-2-((S)-5-((methoxycarbonyl)-L-valyl)-5-azaspiro[2.4]heptan-6-yl)-1H-imidazol-5-yl)-5,10-dihydrochromeno[5,4,3-cde]chromen-2-yl)-4-isopropyl-1H-imidazol-2-yl)-5-azaspiro[2.4]heptan-5-yl)-3-methyl-1-oxobutan-2-yl)carbamate] | 3.7
4 | CC[C@H](C)[C@H](NC(=O)OC)C(=O)N1CC2(CC2)C[C@H]1c1nc(Cl)c(-c2cc3c4c(c2)OCc2cc(-c5[nH]c([C@@H]6CC7(CC7)CN6C(=O)[C@@H](NC(=O)OC)[C@@H](C)CC)nc5C(C)C)cc(c2-4)OC3)[nH]1 [Compound 16, methyl ((2S,3S)-1-((S)-6-(5-(7-(4-chloro-2-((S)-5-((methoxycarbonyl)-L-isoleucyl)-5-azaspiro[2.4]heptan-6-yl)-1H-imidazol-5-yl)-5,10-dihydrochromeno[5,4,3-cde]chromen-2-yl)-4-isopropyl-1H-imidazol-2-yl)-5-azaspiro[2.4]heptan-5-yl)-3-methyl-1-oxopentan-2-yl)carbamate] | 2.3
5 | COC(=O)N[C@H](C(=O)N1CCC[C@H]1c1nc(C2CC2)c(-c2cc3c4c(c2)OCc2cc(-c5[nH]c([C@@H]6CCCN6C(=O)[C@@H](NC(=O)OC)C(C)C)nc5C5CC5)cc(c2-4)OC3)[nH]1)C(C)C [Compound 17, dimethyl ((2S,2′S)-((2S,2′S)-((5,10-dihydrochromeno[5,4,3-cde]chromene-2,7-diyl)bis(4-cyclopropyl-1H-imidazole-5,2-diyl))bis(pyrrolidine-2,1-diyl))bis(3-methyl-1-oxobutane-1,2-diyl))dicarbamate] | 74.5
6 | CCc1nc([C@@H]2CCCN2C(=O)[C@@H](NC(=O)OC)C(C)C)[nH]c1-c1cc2c3c(c1)OCc1cc(-c4[nH]c([C@@H]5CCCN5C(=O)[C@@H](NC(=O)OC)C(C)C)nc4CC)cc(c1-3)OC2 [Compound 18, dimethyl ((2S,2′S)-((2S,2′S)-((5,10-dihydrochromeno[5,4,3-cde]chromene-2,7-diyl)bis(4-ethyl-1H-imidazole-5,2-diyl))bis(pyrrolidine-2,1-diyl))bis(3-methyl-1-oxobutane-1,2-diyl))dicarbamate] | 255
7 | COC(=O)N[C@H](C(=O)N1CCC[C@H]1c1nc(C(C)C)c(-c2cc3c4c(c2)OCc2cc(-c5[nH]c([C@@H]6CCCN6C(=O)[C@@H](NC(=O)OC)C(C)C)nc5C(C)C)cc(c2-4)OC3)[nH]1)C(C)C [Compound 19, dimethyl ((2S,2′S)-((2S,2′S)-((5,10-dihydrochromeno[5,4,3-cde]chromene-2,7-diyl)bis(4-isopropyl-1H-imidazole-5,2-diyl))bis(pyrrolidine-2,1-diyl))bis(3-methyl-1-oxobutane-1,2-diyl))dicarbamate] | 15.8
8 | COC(=O)N[C@H](C(=O)N[C@H](c1nc(Cl)c(-c2cc3c4c(c2)OCc2cc(-c5[nH]c([C@@H](NC(=O)[C@@H](NC(=O)OC)C(C)C)C(C)(C)C)nc5Cl)cc(c2-4)OC3)[nH]1)C(C)(C)C)C(C)C [Compound 20, dimethyl ((2S,2′S)-(((1S,1′S)-((5,10-dihydrochromeno[5,4,3-cde]chromene-2,7-diyl)bis(4-chloro-1H-imidazole-5,2-diyl))bis(2,2-dimethylpropane-1,1-diyl))bis(azanediyl))bis(3-methyl-1-oxobutane-1,2-diyl))dicarbamate] | > 368
9 | COC(=O)N[C@H](C(=O)N1[C@@H](C)CC[C@H]1c1nc(Cl)c(-c2cc3c4c(c2)OCc2cc(-c5[nH]c([C@@H]6CC[C@H](C)N6C(=O)[C@@H](NC(=O)OC)C6C[C@@H](C)O[C@H](C)C6)nc5Cl)cc(c2-4)OC3)[nH]1)C1C[C@@H](C)O[C@H](C)C1 (stereo partly drawn) [Compound 21, dimethyl ((1S,1′S)-((2S,2′S,5S,5′S)-((5,10-dihydrochromeno[5,4,3-cde]chromene-2,7-diyl)bis(4-chloro-1H-imidazole-5,2-diyl))bis(2-methylpyrrolidine-5,1-diyl))bis(1-((2R,6R)-2,6-dimethyltetrahydro-2H-pyran-4-yl)-2-oxoethane-2,1-diyl))dicarbamate] | 9.3
10 | CC[C@H](C)[C@H](NC(=O)OC)C(=O)N1CCC[C@H]1c1ncc(-c2cc3c4c(c2)OCc2cc(-c5[nH]c([C@@H]6CCCN6C(=O)[C@@H](NC(=O)OC)[C@@H](C)CC)nc5Cl)cc(c2-4)OC3)[nH]1 [Compound 22, methyl ((2S,3S)-1-((S)-2-(5-(7-(4-chloro-2-((S)-1-((methoxycarbonyl)-L-isoleucyl)pyrrolidin-2-yl)-1H-imidazol-5-yl)-5,10-dihydrochromeno[5,4,3-cde]chromen-2-yl)-1H-imidazol-2-yl)pyrrolidin-1-yl)-3-methyl-1-oxopentan-2-yl)carbamate] | 14.1
11 | COC(=O)N[C@H](C(=O)N1CCC[C@H]1c1nc(Cl)c(-c2cc3c4c(c2)OCc2cc(-c5[nH]c([C@@H]6CCCN6C(=O)[C@@H](NC(=O)OC)c6ccccc6)nc5Cl)cc(c2-4)OC3)[nH]1)c1ccccc1 [Compound 23, dimethyl ((1S,1′S)-((2S,2′S)-((5,10-dihydrochromeno[5,4,3-cde]chromene-2,7-diyl)bis(4-chloro-1H-imidazole-5,2-diyl))bis(pyrrolidine-2,1-diyl))bis(2-oxo-1-phenylethane-2,1-diyl))dicarbamate] | 52.4
12 | CC[C@H](C)[C@H](NC(=O)OC)C(=O)N1CCC[C@H]1c1nc(Br)c(-c2cc3c4c(c2)OCc2cc(-c5[nH]c([C@@H]6CCCN6C(=O)[C@@H](NC(=O)OC)[C@@H](C)CC)nc5Br)cc(c2-4)OC3)[nH]1 [Compound 24, dimethyl ((2S,2′S,3S,3′S)-((2S,2′S)-((5,10-dihydrochromeno[5,4,3-cde]chromene-2,7-diyl)bis(4-bromo-1H-imidazole-5,2-diyl))bis(pyrrolidine-2,1-diyl))bis(3-methyl-1-oxopentane-1,2-diyl))dicarbamate] | 2.2
